{"source": "patent EP0751768B1", "about": "“ANTI-VIRAL AND ANTI-CANCER AGENT” (Radopath Pharmaceuticals International Limited, priority 1994, dated 1995)", "key": {"[1]": {"test_system": "MAC15A (murine adenocarcinoma colon)", "type": "in vivo, NMR1 mice", "settings": "mouse, in vivo, ip"}, "[2]": {"test_system": "M5076-reticulum cell sarcoma", "experiment": "Anti-tumour activity against M5076 solid tumour (tumour weight inhibition)", "type": "in vivo, murine", "settings": "for % Tumour Weight Inhibition: 16 days after im transplant, corn oil", "method": "(§1) The in vivo anti-tumour responses of the compound according to the invention were assessed against the ascitic tumours, MAC15A murine colon adenocarcinoma and various solid tumour models. The MAC15A ascites tumour cells were transplanted into male NMR1 mice by ip innoculation at a cell density of 1 x 10^5 cells in 200µl buffer (Table I). The solid tumour models included the MAC13 and MAC16 murine colon adenocarcinomas, the B16 F1 murine melanoma and the M5076 reticulum cell sarcoma.\n(§2) Treatment commenced 3 days after ip transplant or, in the case of solid tumours such as MAC13 and MAC16, treatment commenced when average tumour volumes reached 40mm^3.\n(§3) The animals were located in both cases into groups of 5 to 8 animals.\n(§4) The animals were sacrificed after 12 days or when tumours ulcerated, tumour volume exceeded 1000mm^3 or loss of body weight exceeded 50%.\n(§5) Except where otherwise stated, the compound used was dissolved in DMSO and diluted in sterile distilled water, at appropriate concentrations before administration in a solvent volume of 200µl. Anti-tumour responses were obtained by comparing the median survival times or tumour growth inhibition against solvent controls.\n(§6) % Tumour Weight Inhibition:-"}, "B16F1-murine melanoma": {"test_system": "B16F1-murine melanoma", "type": "in vivo", "settings": "mouse, in vivo"}, "[3]": {"test_system": "MAC13 murine colon adenocarcinoma", "experiment": "Anti-tumour activity against MAC13 (tumour weight inhibition)", "type": "in vivo", "settings": "12 days after im transplant, corn oil", "method": "as §1, §2, §3, §4, §5, §6"}, "[4]": {"test_system": "MAC16, murine colon adenocarcinoma", "experiment": "Anti-tumour activity against MAC16 (tumour weight inhibition)", "type": "in vivo", "settings": "for % Tumour Weight Inhibition: sc transplanted, day 11 after the beginning of treatment, tumour volumes at least 40mm^3 at start, corn oil", "method": "as §1, §2, §3, §4, §5, §6"}, "HIV-1RF": {"test_system": "HIV-1RF", "experiment": "microbe, parasite or virus in culture", "type": "cell-based, human immunodeficiency virus HIV-1RF"}, "HIV-I IIIB": {"test_system": "HIV-I IIIB", "experiment": "Acute infection assay, HIV core antigen ELISA (HIV-I IIIB)", "type": "cell-based"}, "[5]": {"test_system": "Chronically infected cells (H9rf)", "experiment": "Chronically infected cell assay, HIV-1 antigen ELISA", "type": "cell-based", "settings": "Against Chronically infected cells"}, "uninfected H9 cells": {"test_system": "uninfected H9 cells", "experiment": "Toxicity in uninfected H9 cells, 14C protein hydrolysate incorporation, four days", "type": "cell-based", "settings": "listed under Against Chronically infected cells; average of the lines above", "method": "• (i) Acute Infection Assay. High titre virus stocks of the human immunodeficiency virus HIV-1RF were grown in H9 cells with RM1 1640 (Flow laboratories) supplemented with 10% fetal calf serum, penicillin (100IU/ml). Cell debris was removed by low speed centrifugation, and the supernatant stored at -70°C until required. In a typical assay C8166 T-lymphoblastoid CD4+ cells were incubated with 10xTCID50 HIV-1RF at 37°C for 90 minutes and then washed three times with phosphate buffered saline (PBS). Cell aliquots (2 x 10^5) were resuspended in 1.5ml growth medium in 6ml tubes, and active compounds in log dilutions [200µM to 0.2µM] were added immediately. 20mM stock solutions of each compound were made up in 70% alcohol. The compounds were stored as a powder and made up freshly in distilled water before each experiment or were stored as a […] stock solution in 70% alcohol. The final concentration of alcohol in the tissue culture medium was 1%. The cells were then incubated at 37°C in 5% CO2. […] The ELISA plates were read with a spectrophotometer. […] HIV-1 antigen in the supernatant was then measured using an ELISA. […] After 6 hours the cells were harvested and the ^14C incorporation measured. • (iii) Toxicity Assay. […] After 12, hours the cells were harvested and the ^14C incorporation measured. […] Toxicity is expressed as inhibition of uptake of ^14C protein hydrolysate. […]"}, "in vitro": {"experiment": "in vitro", "settings": "CC50 (Toxicity)"}}, "note": "“And” between values parts separate entries of the source, which are not always exact repeats. Equal values may be shown once.", "data": [{"molecule": "O=C(O)c1cc([N+](=O)[O-])c(Cl)c([N+](=O)[O-])c1Cl", "note": "[C1, 2,4-dichloro-3,5-dinitrobenzoic acid]", "values": [{"measurement": "T/C%", "setting": "[1]", "result": 243, "unit": "%"}, {"measurement": "% Tumour Weight Inhibition", "setting": "[2]; 25 mg/kg per day ip, days 1,2,4,6,9", "result": 75, "unit": "%"}, {"measurement": "% Tumour Weight Inhibition", "setting": "[2]; 25 mg/kg per day sc, days 1,2,4,5,6,7,9", "result": 63, "unit": "%"}, {"measurement": "% Tumour Weight Inhibition", "setting": "[2]; 50 mg/kg per day ip, days 1,4,6,9", "result": 57, "unit": "%"}, {"measurement": "% Tumour Weight Inhibition", "setting": "[2]; 50 mg/kg per day sc, days 1,2,4,5,6,7,9", "result": 76, "unit": "%"}, {"measurement": "% Tumour Weight Inhibition", "setting": "[2]; 75 mg/kg per day ip, days 1,4,6,9, listed as 2,4 BA", "result": "79% and 88%"}, {"measurement": "% Tumour Weight Inhibition", "setting": "[2]; 75 mg/kg per day sc, days 1,4,5,7,9", "result": 66, "unit": "%"}, {"measurement": "activity on a split-dose schedule down to (dose)", "setting": "[2]; by both ip and sc routes", "result": 25, "unit": "mg/kg body weight"}, {"measurement": "inhibition of tumour growth (in words)", "setting": "B16F1-murine melanoma", "result": "effectively inhibited growth"}, {"measurement": "% Tumour Weight Inhibition", "setting": "[3]; 50 mg/kg per day ip, days 1,2,3,4,5,6,7,8,9", "result": 39, "unit": "%"}, {"measurement": "% Tumour Weight Inhibition", "setting": "[3]; 75 mg/kg per day ip, days 1,4,5", "result": 45, "unit": "%"}, {"measurement": "% Tumour Weight Inhibition", "setting": "[4]; 50 mg/kg per day ip, days 1,2,4,5,8", "result": 91, "unit": "%"}, {"measurement": "% Tumour Weight Inhibition", "setting": "[4]; 75 mg/kg per day ip, days 1,2,5,8", "result": 88, "unit": "%"}, {"measurement": "inhibition of tumour growth (in words)", "setting": "[4]; MAC16 murine colon adenocarcinoma", "result": "effectively inhibited growth"}, {"measurement": "SI (Selectivity Index), Average", "setting": "HIV-1RF", "result": 5}, {"measurement": "IC50", "setting": "HIV-1RF; Human immunodeficiency virus 1, C8166, read-out: IC50 (Antiviral), Average", "result": 11.5, "unit": "µM"}, {"measurement": "SI (Selectivity Index)", "setting": "HIV-I IIIB", "result": 2}, {"measurement": "SI (Selectivity Index), Average", "setting": "HIV-I IIIB", "result": 3}, {"measurement": "IC50", "setting": "HIV-I IIIB; Human immunodeficiency virus 1, IIIB, read-out: IC50 (Antiviral), Average", "result": 27, "unit": "µM"}, {"measurement": "SI (Selectivity Index), Average", "setting": "[5]; average line", "result": 4}, {"measurement": "IC50", "setting": "[5]; Human immunodeficiency virus 1, 96 h, four days, single determinations, read-out: IC50 (Antiviral)", "result": 16, "unit": "µM"}, {"measurement": "CC50", "setting": "uninfected H9 cells", "result": 63, "unit": "µM"}, {"measurement": "CC50", "setting": "in vitro", "result": 30, "unit": "µM"}]}]}
